This is an account of results in ChEMBL document CHEMBL2176966, “Discovery of 6,7-dihydro-5H-pyrrolo[2,3-a]pyrimidines as orally available G protein-coupled receptor 119 agonists” (J Med Chem, 2012).

Active and inactive are the calls of the source. The calls are words filed in the database; no cut-off is given here.

The target of data set [1] is T1, Glucose-dependent insulinotropic receptor (Homo sapiens, UniProt Q8TDV5).
T1 sequence (Q8TDV5 whole entry): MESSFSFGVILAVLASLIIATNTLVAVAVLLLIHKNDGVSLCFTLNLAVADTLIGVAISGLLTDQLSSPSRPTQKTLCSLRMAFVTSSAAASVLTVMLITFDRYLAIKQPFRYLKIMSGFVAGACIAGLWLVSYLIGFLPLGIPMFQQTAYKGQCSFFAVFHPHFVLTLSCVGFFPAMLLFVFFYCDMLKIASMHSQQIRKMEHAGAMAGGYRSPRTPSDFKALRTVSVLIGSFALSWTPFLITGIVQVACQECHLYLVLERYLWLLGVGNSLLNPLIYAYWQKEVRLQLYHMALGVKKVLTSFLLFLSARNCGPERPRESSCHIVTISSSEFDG
The experiment in a line: Agonist activity at human GPR119 receptor expressed in CHO-K1 cells co-expressing 6CRE-luciferase gene after 5 hrs by luciferase reporter gene assay. Type of data set: functional, cell-based.

Data set [2] deals with Rattus norvegicus. The experiment in a line: Antihyperglycemic activity in Wistar rat assessed as glucose excursion curve at 10 mg/kg, po by glucose tolerance test. The class given is functional.
For data set [3], the system named is Rattus norvegicus. The experiment in a line: Dose normalized AUC (0 to 24 hrs) in rat at 30 mg/kg. Type of data set: ADME, organism-based. Further details: dose 30 mg/kg. The following applies: in vivo.
A short description of data set [4]: AUC (0 to 24 hrs) in rat at 10 mg/kg. Further details: time < 24 hr, dose 10 mg/kg. The class given is ADME, organism-based. The following applies: plasma.
The next data set has as its system Mus musculus. The experiment in a line: Dose normalized AUC (0 to 24 hrs) in mouse at 30 mg/kg. The class given is ADME, organism-based. Further details: dose 30 mg/kg. The following applies: in vivo.

As to `CC(C)(C)COC(=O)N1CCC(Oc2ncnc3c2CCN3c2ccc(S(C)(=O)=O)cc2F)CC1`, the EC50 in data set [1] (read-out: pEC50 (converted)) was 39.8 nM.

As to `CC(C)OC(=O)N1CCC(Oc2cccc3c2CCN3c2ccc(S(C)(=O)=O)cc2F)CC1`, the EC50 in data set [1] (read-out: pEC50 (converted)) is 1000 nM.

For the molecule `N#C[C@@H]1CCCN1C(=O)CNC12CC3CC(CC(O)(C3)C1)C2`, the outcome in the data set on Rattus norvegicus [2] was Active.

As for `N#CN1CCC(O)CC1`, the EC50 in data set [1] (read-out: pEC50 (converted)) is 316 nM.

As for `CC(C)SC(=O)N1CCC(Oc2ncnc3c2CCN3c2ccc(S(C)(=O)=O)cc2F)CC1`, the EC50 in data set [1] (read-out: pEC50 (converted)) is 10 nM.

For the molecule `CC(C)OC(=O)N1CCC(Oc2ncnc3c2CC(C)N3c2ccc(S(C)(=O)=O)cc2F)CC1` (single isomer, unassigned; (-)), the EC50 in data set [1] (read-out: pEC50 (converted)) is > 10000 nM.

With `Cc1cc(S(C)(=O)=O)ccc1N1CCc2c(OC3CCN(C(=O)OC(C)C)CC3)ncnc21`, the EC50 in data set [1] (read-out: pEC50 (converted)) was 100 nM.

With `CC(C)OC(=O)N1CCC(Oc2ncnc3c2CCN3c2ccc(C#N)cc2F)CC1`, in the data set on Rattus norvegicus [3], the AUC/dose was > 1 µg·h/mL. Moreover, the EC50 in data set [1] (read-out: pEC50 (converted)) is 63.1 nM.

As to `CC(C)OC(=O)N1CCC(Oc2ncnc3c2CCN3c2ccc(F)cn2)CC1`, the EC50 in data set [1] (read-out: pEC50 (converted)) was > 10000 nM.

Consider `Cc1nc(OC2CCN(C(=O)OC(C)(C)C)CC2)c2c(n1)N(c1ccc(S(C)(=O)=O)cc1F)CC2`, for which the EC50 in data set [1] (read-out: pEC50 (converted)) was 126 nM.

Take `O=[N+]([O-])c1c(Nc2ccc(-n3cncn3)cc2)ncnc1N1CCC(Sc2ccccn2)CC1`: the EC50 in data set [1] (read-out: EC50) was 200 nM.

Turning to `CN(C)S(=O)(=O)N1CCC(Oc2ncnc3c2CCN3c2ccc(S(C)(=O)=O)cc2F)CC1`, the EC50 in data set [1] (read-out: pEC50 (converted)) is 398 nM.

Regarding `CC(C)OC(=O)N1CCC(Sc2ncnc3c2CCN3c2ccc(S(C)(=O)=O)cc2F)CC1`, in data set [1] (read-out: pEC50 (converted)), the EC50 was 79.4 nM.

As to `CC(C)OC(=O)N1CCC(Oc2ncnc3c2CCN3c2ccc(S(C)(=O)=O)nc2)CC1`, the EC50 in data set [1] (read-out: pEC50 (converted)) is 251 nM.

Regarding `CC(C)OC(=O)N1CCC(Oc2ncnc3c2CCN3c2ccc(S(C)(=O)=O)cc2)CC1`, the EC50 in data set [1] (read-out: pEC50 (converted)) was 126 nM.

In the case of `COCCOC(=O)N1CCC(Oc2ncnc3c2CCN3c2ccc(S(C)(=O)=O)cc2F)CC1`, the EC50 in data set [1] (read-out: pEC50 (converted)) is 316 nM.

Consider `CCCCOC(=O)N1CCC(Oc2ncnc3c2CCN3c2ccc(S(C)(=O)=O)cc2F)CC1`, for which, in data set [1] (read-out: pEC50 (converted)), the EC50 was 50.1 nM.

In the case of `CCN(CC)C(=O)CN1CCC(Oc2ncnc3c2CCN3c2ccc(S(C)(=O)=O)cc2F)CC1`, in data set [1] (read-out: pEC50 (converted)), the EC50 is > 10000 nM.

For the molecule `CC(C)OC(=O)N1CCC(Oc2ncnc3c2CCN3c2ccc([S@+](C)[O-])cc2F)CC1`, the EC50 in data set [1] (read-out: pEC50 (converted)) was 50.1 nM.

For `CC(C)c1noc(N2CCC(Oc3ncnc4c3CCN4c3ccc(S(C)(=O)=O)cc3F)CC2)n1`, in data set [1] (read-out: pEC50 (converted)), the EC50 is 79.4 nM. The AUC(0-t) at 24 h in data set [4] is 500 ng·h/mL.

Regarding `CC(C)(C)OC(=O)N1CCC(Oc2cccc3c2CCN3c2ccc(S(C)(=O)=O)cc2)CC1`, the EC50 in data set [1] (read-out: pEC50 (converted)) is 158 nM.

Turning to `Cc1ncccc1N1CCc2c(OC3CCN(C(=O)OC(C)C)CC3)ncnc21`, in data set [1] (read-out: pEC50 (converted)), the EC50 is > 10000 nM.

On to `CC(C)(C)OC(=O)N1CCC(Oc2ncnc3c2CCN3c2ccc(S(C)(=O)=O)cc2F)CC1`, for which the EC50 in data set [1] (read-out: pEC50 (converted)) is 20 nM.

With `CC(C)OC(=O)N1CCC(Oc2ncnc3c2CCN3c2ccc([S@@+](C)[O-])cc2F)CC1`, the EC50 in data set [1] (read-out: pEC50 (converted)) is 631 nM.

`CCS(=O)(=O)N1CCC(Oc2ncnc3c2CCN3c2ccc(S(C)(=O)=O)cc2F)CC1`: in data set [1] (read-out: pEC50 (converted)), the EC50 is 1580 nM.

For the molecule `CC(C)OC(=O)N1CCC(Oc2ncnc3c2CCN3c2ccc(C#N)c(F)c2)CC1`, the EC50 in data set [1] (read-out: pEC50 (converted)) is 398 nM.

As for `CC(C)COC(=O)N1CCC(Oc2ncnc3c2CCN3c2ccc(S(C)(=O)=O)cc2F)CC1`, the EC50 in data set [1] (read-out: pEC50 (converted)) was 25.1 nM.

As to `Cc1nc(OC2CCN(C(=O)OC(C)C)CC2)c2c(n1)N(c1ccc(S(C)(=O)=O)cc1F)CC2`, in data set [1] (read-out: pEC50 (converted)), the EC50 is 100 nM.

Take `CC(C)OC(=O)N1CCC(Oc2ncnc3c2CCN3c2ccc(S(C)(=O)=O)c(F)c2)CC1`: the EC50 in data set [1] (read-out: pEC50 (converted)) was 158 nM.

As to `CS(=O)(=O)c1ccc(N2CCc3c(OC4CCN(C(=O)OCCF)CC4)ncnc32)c(F)c1`, the EC50 in data set [1] (read-out: pEC50 (converted)) is 501 nM.

Turning to `CC(C)OC(=O)N1CCC(Oc2nc(N)nc3c2CCN3c2ccc(S(C)(=O)=O)cc2F)CC1`, the EC50 in data set [1] (read-out: pEC50 (converted)) is 794 nM.

For the molecule `Cc1nc(OC2CCN(c3nc(C(C)C)no3)CC2)c2c(n1)N(c1ccc(S(C)(=O)=O)cc1F)CC2`, the EC50 in data set [1] (read-out: pEC50 (converted)) was 251 nM.

Regarding `COC(=O)N1CCC(Oc2ncnc3c2CCN3c2ccc(S(C)(=O)=O)cc2F)CC1`, the EC50 in data set [1] (read-out: pEC50 (converted)) was 316 nM.

As for `CC(C)OC(=O)N1CCC(Oc2ncnc3c2CCN3c2ccc(S(C)(=O)=O)cn2)CC1`, the EC50 in data set [1] (read-out: pEC50 (converted)) is 126 nM.

With `CC(C)OC(=O)N1CCC(Oc2ncnc3c2CCN3c2ccc(-c3nccs3)cc2F)CC1`, in data set [1] (read-out: pEC50 (converted)), the EC50 was 79.4 nM.

With `CC(C)OC(=O)N1CCC(Oc2ncnc3c2CCN3c2ccc(S(=O)(=O)N(C)C)cc2)CC1`, the EC50 in data set [1] (read-out: pEC50 (converted)) was 501 nM.

For `CC(C)OC(=O)N1CCC(Oc2ncnc3c2CCN3c2ccc(C#N)cn2)CC1`, the EC50 in data set [1] (read-out: pEC50 (converted)) is 794 nM.

In the case of `CCSC(=O)N1CCC(Oc2ncnc3c2CCN3c2ccc(S(C)(=O)=O)cc2F)CC1`, the EC50 in data set [1] (read-out: pEC50 (converted)) was 31.6 nM.

On to `CCOC(=O)N1CCC(Oc2ncnc3c2CCN3c2ccc(S(C)(=O)=O)cc2F)CC1`, for which the EC50 in data set [1] (read-out: pEC50 (converted)) was 251 nM.

Consider `CSc1ccc(N2CCc3c(OC4CCN(C(=O)OC(C)C)CC4)ncnc32)c(F)c1`, for which the EC50 in data set [1] (read-out: pEC50 (converted)) is 398 nM.

Regarding `CC(C)OC(=O)N1CCC(Oc2ncnc3c2CC(C)N3c2ccc(S(C)(=O)=O)cc2F)CC1` (single isomer, unassigned; (+)), the negative logarithm of the EC50 (pEC50) in data set [1] (cho-k1) is reported as < 5.

Consider `CC(C)S(=O)(=O)N1CCC(Oc2ncnc3c2CCN3c2ccc(S(C)(=O)=O)cc2F)CC1`, for which the EC50 in data set [1] (read-out: pEC50 (converted)) was 1260 nM.

`CC(C)OC(=O)N1CCC(N(C)c2ncnc3c2CCN3c2ccc(S(C)(=O)=O)cc2F)CC1`: the EC50 in data set [1] (read-out: pEC50 (converted)) is 631 nM.

Consider `CC(C)(C)OC(=O)N1CCC(Oc2cccc3c2ccn3-c2ccc(S(C)(=O)=O)cc2)CC1`, for which the EC50 in data set [1] (read-out: pEC50 (converted)) is 631 nM.

In the case of `CSC(=O)N1CCC(Oc2ncnc3c2CCN3c2ccc(S(C)(=O)=O)cc2F)CC1`, in data set [1] (read-out: pEC50 (converted)), the EC50 was 251 nM.

In the case of `CNc1nc(OC2CCN(C(=O)OC(C)C)CC2)c2c(n1)N(c1ccc(S(C)(=O)=O)cc1F)CC2`, in data set [1] (read-out: pEC50 (converted)), the EC50 is > 10000 nM.

For `CC(C)c1noc(N2CCC(O)CC2)n1`, in data set [1] (read-out: pEC50 (converted)), the EC50 was 50.1 nM.

Regarding `CC(C)OC(=O)N1CCC(Oc2ncnc3c2CCN3c2ccc(-c3cccn3C)cc2F)CC1`, the EC50 in data set [1] (read-out: pEC50 (converted)) is 158 nM.

Regarding `CC(C)OC(=O)N1CCC(S(=O)(=O)c2ncnc3c2CCN3c2ccc(S(C)(=O)=O)cc2F)CC1`, in data set [1] (read-out: pEC50 (converted)), the EC50 is > 10000 nM.

Regarding `CS(=O)(=O)c1ccc(N2CCc3c(OC4CCN(C5=NCCCN5)CC4)ncnc32)c(F)c1`, the EC50 in data set [1] (read-out: pEC50 (converted)) was 2000 nM.

In the case of `CCc1cnc(N2CCC(Oc3ncnc4c3CCN4c3ccc(S(C)(=O)=O)cc3F)CC2)nc1`, the AUC/dose with Mus musculus was 0.04 µg·h/mL.

For `CCCOC(=O)N1CCC(Oc2ncnc3c2CCN3c2ccc(S(C)(=O)=O)cc2F)CC1`, the EC50 in data set [1] (read-out: pEC50 (converted)) is 79.4 nM.

Regarding `CC(C)OC(=O)N1CCC(Oc2cccc3c2CCN3c2ccc(S(C)(=O)=O)cc2)CC1`, the EC50 in data set [1] (read-out: pEC50 (converted)) was 501 nM.

For `CS(=O)(=O)c1ccc(N2CCc3c(OC4CCN(C(=S)Sc5ccccc5)CC4)ncnc32)c(F)c1`, in data set [1] (read-out: pEC50 (converted)), the EC50 is 12.6 nM.

`CC(C)OC(=O)N1CCC(Nc2ncnc3c2CCN3c2ccc(S(C)(=O)=O)cc2F)CC1`: the EC50 in data set [1] (read-out: pEC50 (converted)) was 2000 nM.
